Results published in paper PMC5578999, “Novel quinolone chalcones targeting colchicine-binding pocket kill multidrug-resistant cancer cells by inhibiting tubulin activity and MRP1 function” (Scientific Reports, 2017).

Key:
Assay type in all cases: cell-based
MDR1 = test: Rh123 dye efflux assay, KB-C-2 cells; conditions: MDR1, KB-C-2 cells; 22 µmol/L of drug; DMSO control 58.0%
Description: Rhodamine123 (Rh123) drug efflux was carried out using a Multidrug-Resistance Direct Dye Efflux Activity Kit (Millipore, Darmstadt, Germany), with some modifications. […] Reading was carried out with a Beckman Coulter FC500 flow cytometer.

HOP-62 = test: NCI-60 SRB screen
HOP-92 = test: NCI-60 SRB screen
LOX IMVI = test: NCI-60 SRB screen
SF-268 = test: NCI-60 SRB screen
SF-295 = test: NCI-60 SRB screen
SK-MEL-5 = test: NCI-60 SRB screen
ACHN = test: NCI-60 SRB screen; conditions: 1.00E-5 Molar
Excerpt: (§1) Supplementary Table S 3: Antitumor activity of CTR -17 and CTR -20, alone or in combination […]
(§2) a Tax: paclitaxel. b mg per kg of bod y wei ght. c unit is mm 3.
(§3) Supplementary Figure l egend
(§4) 10μ M of CTR-20 was used to examine the drug’s efficac y against the NC I-60 cancer cell li nes including: six leukemia cell lines, nine non- small cell lung cancer cell lines, seven color ect al cancer cell lines, six CNS cancer cell lines, nine melanoma cell lines, seven ovari an can cer cell lines, seven ren al can cer cell lines, two prostate cancer cell lines and six breast cancer cell lines. The scr eenin g was car r ied out b y the US National Cancer Institute (NC I) us i n g a sulforhodamine B (SRB) colorimetric assay. […]
(§5) out by the NC I using five different doses of CTR -20.

COLO 205 = test: NCI-60 SRB screen; conditions: 1.00E-5 Molar
Excerpt: as §1, §2, §3, §4, §5

HCT-116 = test: NCI-60 SRB screen
Excerpt: as §1, §2, §3, §4, §5

HS 578T = test: NCI-60 SRB screen
Excerpt: as §1, §2, §3, §4, §5

MOLT-4 = test: NCI-60 SRB screen
Excerpt: as §1, §2, §3, §4, §5

SNB-75 = test: NCI-60 SRB screen
Excerpt: as §1, §2, §3, §4, §5

[1] = Homo sapiens, read-out: LC50 (the source's name)

COc1ccc2[nH]c(=O)c(/C=C/C(=O)c3ccccc3OC)cc2c1 [CTR-20, (E)-6-Methoxy-3-(3-(2-methoxyphenyl)-3-oxoprop-1-enyl) quinolin-2(1H)-one]
Rh123 retention (MDR1): 57.9%
Log10GI50 (HOP-62): -5.91 Molar
Log10LC50 (HOP-62): -4.63 Molar
Log10TGI (HOP-62): -5.27 Molar
TGI (HOP-62): 5.32E-6 Molar
Growth Percent (HOP-62; 1.00E-5 Molar): 8.67%
GI50 (HOP-62; Homo sapiens): 1.24 µM
LC50 (HOP-62; Homo sapiens): 23.7 µM
Percent Growth (HOP-62; Log10 Concentration -4.0): -97%
Percent Growth (HOP-62; Log10 Concentration -5.0): -22%
Percent Growth (HOP-62; Log10 Concentration -6.0): 58%
Percent Growth (HOP-62; Log10 Concentration -7.0): 95%
Percent Growth (HOP-62; Log10 Concentration -8.0): 89%
Log10GI50 (HOP-92): -5.80 Molar
Log10LC50 (HOP-92): -4.57 Molar
Log10TGI (HOP-92): -5.21 Molar
TGI (HOP-92): 6.17E-6 Molar
Growth Percent (HOP-92; 1.00E-5 Molar): -11.97%
GI50 (HOP-92; Homo sapiens): 1.57 µM
LC50 (HOP-92; Homo sapiens): 27 µM
Percent Growth (HOP-92; Log10 Concentration -4.0): -92%
Percent Growth (HOP-92; Log10 Concentration -5.0): -18%
Percent Growth (HOP-92; Log10 Concentration -6.0): 67%
Percent Growth (HOP-92; Log10 Concentration -7.0): 111%
Percent Growth (HOP-92; Log10 Concentration -8.0): 107%
Log10GI50 (LOX IMVI): -6.42 Molar
Log10LC50 (LOX IMVI): -5.33 Molar
Log10TGI (LOX IMVI): -5.79 Molar
TGI (LOX IMVI): 1.61E-6 Molar
Growth Percent (LOX IMVI; 1.00E-5 Molar): 10.23%
GI50 (LOX IMVI; Homo sapiens): 0.379 µM
LC50 (LOX IMVI; Homo sapiens): 4.71 µM
Percent Growth (LOX IMVI; Log10 Concentration -4.0): -95%
Percent Growth (LOX IMVI; Log10 Concentration -5.0): -85%
Percent Growth (LOX IMVI; Log10 Concentration -6.0): 22%
Percent Growth (LOX IMVI; Log10 Concentration -7.0): 88%
Percent Growth (LOX IMVI; Log10 Concentration -8.0): 96%
Log10GI50 (SF-268): -6.16 Molar
Log10LC50 (SF-268): -4.15 Molar
Log10TGI (SF-268): -4.98 Molar
TGI (SF-268): 1.05E-5 Molar
Growth Percent (SF-268; 1.00E-5 Molar): 9.36%
GI50 (SF-268; Homo sapiens): 0.69 µM
CC50 (SF-268; [1]): 70.4 µM
Percent Growth (SF-268; Log10 Concentration -4.0): -59%
Percent Growth (SF-268; Log10 Concentration -5.0): 1%
Percent Growth (SF-268; Log10 Concentration -6.0): 42%
Percent Growth (SF-268; Log10 Concentration -7.0): 93%
Percent Growth (SF-268; Log10 Concentration -8.0): 92%
Log10GI50 (SF-295): -6.28 Molar
Log10LC50 (SF-295): -4.42 Molar
Log10TGI (SF-295): -4.92 Molar
TGI (SF-295): 1.21E-5 Molar
Growth Percent (SF-295; 1.00E-5 Molar): 8.29%
GI50 (SF-295; Homo sapiens): 0.529 µM
CC50 (SF-295; [1]): 37.6 µM
Percent Growth (SF-295; Log10 Concentration -4.0): -93%
Percent Growth (SF-295; Log10 Concentration -5.0): 8%
Percent Growth (SF-295; Log10 Concentration -6.0): 33%
Percent Growth (SF-295; Log10 Concentration -7.0): 93%
Percent Growth (SF-295; Log10 Concentration -8.0): 89%
Log10GI50 (SK-MEL-5): -6.14 Molar
Log10LC50 (SK-MEL-5): -5.31 Molar
Log10TGI (SK-MEL-5): -5.68 Molar
TGI (SK-MEL-5): 2.08E-6 Molar
Growth Percent (SK-MEL-5; 1.00E-5 Molar): 25.21%
GI50 (SK-MEL-5; Homo sapiens): 0.728 µM
CC50 (SK-MEL-5; [1]): 4.93 µM
Percent Growth (SK-MEL-5; Log10 Concentration -4.0): -98%
Percent Growth (SK-MEL-5; Log10 Concentration -5.0): -91%
Percent Growth (SK-MEL-5; Log10 Concentration -6.0): 43%
Percent Growth (SK-MEL-5; Log10 Concentration -7.0): 96%
Percent Growth (SK-MEL-5; Log10 Concentration -8.0): 101%
Growth Percent (ACHN): 38.84%
Growth Percent (COLO 205): 20.45%
Log10GI50 (HCT-116): -6.46 Molar
Log10LC50 (HCT-116): -5.26 Molar
Log10TGI (HCT-116): -5.83 Molar
TGI (HCT-116): 1.48E-6 Molar
Growth Percent (HCT-116; 1.00E-5 Molar): 16.04%
GI50 (HCT-116; Homo sapiens): 0.348 µM
CC50 (HCT-116; [1]): 5.48 µM
Percent Growth (HCT-116; Log10 Concentration -4.0): -96%
Percent Growth (HCT-116; Log10 Concentration -5.0): -73%
Percent Growth (HCT-116; Log10 Concentration -6.0): 15%
Percent Growth (HCT-116; Log10 Concentration -7.0): 92%
Percent Growth (HCT-116; Log10 Concentration -8.0): 94%
Log10LC50 (HS 578T): > -4.00 Molar
Log10TGI (HS 578T): -4.08 Molar
TGI (HS 578T): 8.38E-5 Molar
Growth Percent (HS 578T; 1.00E-5 Molar): 8.33%
CC50 (HS 578T; [1]): > 100 µM
Percent Growth (HS 578T; Log10 Concentration -4.0): -8%
Percent Growth (HS 578T; Log10 Concentration -5.0): 91%
Percent Growth (HS 578T; Log10 Concentration -6.0): 37%
Percent Growth (HS 578T; Log10 Concentration -7.0): 98%
Percent Growth (HS 578T; Log10 Concentration -8.0): 96%
Log10GI50 (MOLT-4): -6.38 Molar
Log10LC50 (MOLT-4): > -4.00 Molar
Log10TGI (MOLT-4): -4.57 Molar
TGI (MOLT-4): 2.71E-5 Molar
Growth Percent (MOLT-4; 1.00E-5 Molar): 10.88%
GI50 (MOLT-4; Homo sapiens): 0.421 µM
CC50 (MOLT-4; [1]): > 100 µM
Percent Growth (MOLT-4; Log10 Concentration -4.0): -12%
Percent Growth (MOLT-4; Log10 Concentration -5.0): 9%
Percent Growth (MOLT-4; Log10 Concentration -6.0): 21%
Percent Growth (MOLT-4; Log10 Concentration -7.0): 98%
Percent Growth (MOLT-4; Log10 Concentration -8.0): 97%
Log10GI50 (SNB-75): -6.33 Molar
Log10LC50 (SNB-75): -4.42 Molar
Log10TGI (SNB-75): -4.85 Molar
TGI (SNB-75): 1.42E-5 Molar
Growth Percent (SNB-75; 1.00E-5 Molar): -11.48%
GI50 (SNB-75; Homo sapiens): 0.47 µM
CC50 (SNB-75; [1]): 37.8 µM
Percent Growth (SNB-75; Log10 Concentration -4.0): -100%
Percent Growth (SNB-75; Log10 Concentration -5.0): 18%
Percent Growth (SNB-75; Log10 Concentration -6.0): 34%
Percent Growth (SNB-75; Log10 Concentration -7.0): 82%
Percent Growth (SNB-75; Log10 Concentration -8.0): 86%
